One data set deals with human GABAB-R (ChEMBL ID: CHEMBL2111463).
Assay: not given
The settings on record: cited from earlier work.
As to `NCC(CC(=O)O)c1ccc(Cl)s1` (stereo not shown) [CHEMBL87482, NCC(CC(=O)O)c1ccc(Cl)s1], the Activity entry is listed as “Agonist”. Turning to `NCC(C[PH](=O)O)c1ccc(Cl)cc1` (stereo not shown) [CHEMBL430501, NCC(C[PH](=O)O)c1ccc(Cl)cc1], the Activity result is recorded as “Agonist”. Take `NCC(C[PH](=O)O)c1ccccc1` (stereo not shown) [CHEMBL109752, NCC(C[PH](=O)O)c1ccccc1]: the Activity entry is “Agonist”. Consider `CP(=O)(O)CC(O)CN` (stereo not shown) [CHEMBL113348, CP(=O)(CC(CN)O)O], for which the Activity entry is given as “Agonist”. With `NCC(O)(CS(=O)(=O)O)c1ccc(Cl)cc1` (stereo not shown) [CHEMBL1256573, NCC(c1ccc(cc1)Cl)(CS(=O)(=O)O)O], the Activity entry is “Antagonist”.

Consider `NCC(O)C[PH](=O)O` (stereo not shown) [CHEMBL113453, NCC(O)C[PH](=O)O], for which the Activity entry is listed as “Agonist”.

On to `NCCC(c1ccccc1)[PH](=O)O` (stereo not shown) [CHEMBL111127, NCCC(c1ccccc1)[PH](=O)O], for which the Activity result is “Agonist”. Consider `NC(CC[PH](=O)O)c1ccc(Cl)cc1` (stereo not shown) [CHEMBL110306, NC(CC[PH](=O)O)c1ccc(Cl)cc1], for which the Activity result is recorded as “Agonist”. `CC(C)(CO)Cc1cc(C(C)(C)C)c(O)c(C(C)(C)C)c1` [CHEMBL1256697, CC(C)(CO)Cc1cc(C(C)(C)C)c(O)c(C(C)(C)C)c1]: the Activity result was “PAM”. As for `NCCC(c1ccc(Cl)cc1)[PH](=O)O` (stereo not shown) [CHEMBL114020, NCCC(c1ccc(Cl)cc1)[PH](=O)O], the Activity entry is recorded as “Agonist”. `CCOC(OCC)P(=O)(O)CCCN` [CHEMBL40157, NCCCP(=O)(C(OCC)OCC)O]: the Activity result was “Antagonist”. `CC(NCC(O)CP(=O)(O)Cc1ccccc1)c1ccc(Cl)c(Cl)c1` (stereo not shown) [CHEMBL455185, OC(CP(=O)(Cc1ccccc1)O)CNC(c1ccc(c(c1)Cl)Cl)C]: the Activity entry is listed as “Antagonist”. For the compound `NCC(C[PH](=O)O)c1ccc(F)cc1` (stereo not shown) [CHEMBL111378, NCC(C[PH](=O)O)c1ccc(F)cc1], the Activity entry was “Agonist”.

In another data set the target is GABAB-R.
Assay: not given
To be noted: read-out: Ki value; cited from earlier work.
The Ki is the equilibrium dissociation constant of an inhibitor or competing ligand from its target. As to CGP54626, the Ki is 7.08 nM.

Tested on in another data set: not listed separately
Put plainly: Solubility of stock in 100% DMSO. The format is physicochemical. To be noted: stock reduced to 5 mM. On the procedure: The 34 compounds for in vitro testing were purchased from MolPort (https://www.molport.com/). The test compounds were dissolved in 100% DMSO at a stock concentration of 10 mM and stored at −20 °C. […] Stock compounds were subsequently serially diluted in 100% DMSO and finally in a D-glucose solution (20 mM NaOH, 5 mM D-glucose) to obtain final concentrations for testing.
Take `CN(Cc1ccc(Cl)c(Cl)c1)Cc1nc2ccsc2c(=O)[nH]1` [Compound 5, CN(Cc1ccc(Cl)c(Cl)c1)Cc1nc2ccsc2c(=O)[nH]1]: the “solubility of 10 mM stock” value is on record as “solubility problems”. Still for that read-out and setting: as for `CSCCC(NC(=O)N1CC(O)=Nc2ccccc21)C(=O)NCc1ccc(Cl)cc1Cl` (stereo not shown) [Compound 25, CSCCC(NC(=O)N1CC(O)=Nc2ccccc12)C(=O)NCc1ccc(Cl)cc1Cl], the entry is “solubility problems”.

The values are drawn from article PMC12138688, “Identification of Orthosteric GABAB Receptor Ligands by Virtual Screening and In Vitro Validation” (ACS Omega, 2025).
